The source made the active and inactive calls. The calls are words filed in the database; no cut-off is given here.
What was measured:
[1] = molecular target: Serine/threonine-protein kinase mTOR (Homo sapiens, UniProt P42345); assay: Inhibition of mTOR (unknown origin)
MDA-MB-468 = assay: Antiproliferative activity against human MDA-MB-468 cells measured after 48 hrs; format: functional, cell-based; conditions: MDA-MB-468, 48 h
Histone deacetylase 2 [2] = molecular target: T1, Histone deacetylase 2 (Homo sapiens, UniProt Q92769); assay: Binding affinity to HDAC2 in human MDA-MB-231 cells assessed as increase in thermal stability at 10 uM measured at 6 hrs by CETSA; format: cell-based
[3] = molecular target: T2, Protein deacetylase HDAC6 (Homo sapiens) (UniProt Q9UBN7); assay: Binding affinity to HDAC6 in human MDA-MB-231 cells assessed as increase in thermal stability at 10 uM measured at 6 hrs by CETSA; format: cell-based
T2 sequence (whole entry): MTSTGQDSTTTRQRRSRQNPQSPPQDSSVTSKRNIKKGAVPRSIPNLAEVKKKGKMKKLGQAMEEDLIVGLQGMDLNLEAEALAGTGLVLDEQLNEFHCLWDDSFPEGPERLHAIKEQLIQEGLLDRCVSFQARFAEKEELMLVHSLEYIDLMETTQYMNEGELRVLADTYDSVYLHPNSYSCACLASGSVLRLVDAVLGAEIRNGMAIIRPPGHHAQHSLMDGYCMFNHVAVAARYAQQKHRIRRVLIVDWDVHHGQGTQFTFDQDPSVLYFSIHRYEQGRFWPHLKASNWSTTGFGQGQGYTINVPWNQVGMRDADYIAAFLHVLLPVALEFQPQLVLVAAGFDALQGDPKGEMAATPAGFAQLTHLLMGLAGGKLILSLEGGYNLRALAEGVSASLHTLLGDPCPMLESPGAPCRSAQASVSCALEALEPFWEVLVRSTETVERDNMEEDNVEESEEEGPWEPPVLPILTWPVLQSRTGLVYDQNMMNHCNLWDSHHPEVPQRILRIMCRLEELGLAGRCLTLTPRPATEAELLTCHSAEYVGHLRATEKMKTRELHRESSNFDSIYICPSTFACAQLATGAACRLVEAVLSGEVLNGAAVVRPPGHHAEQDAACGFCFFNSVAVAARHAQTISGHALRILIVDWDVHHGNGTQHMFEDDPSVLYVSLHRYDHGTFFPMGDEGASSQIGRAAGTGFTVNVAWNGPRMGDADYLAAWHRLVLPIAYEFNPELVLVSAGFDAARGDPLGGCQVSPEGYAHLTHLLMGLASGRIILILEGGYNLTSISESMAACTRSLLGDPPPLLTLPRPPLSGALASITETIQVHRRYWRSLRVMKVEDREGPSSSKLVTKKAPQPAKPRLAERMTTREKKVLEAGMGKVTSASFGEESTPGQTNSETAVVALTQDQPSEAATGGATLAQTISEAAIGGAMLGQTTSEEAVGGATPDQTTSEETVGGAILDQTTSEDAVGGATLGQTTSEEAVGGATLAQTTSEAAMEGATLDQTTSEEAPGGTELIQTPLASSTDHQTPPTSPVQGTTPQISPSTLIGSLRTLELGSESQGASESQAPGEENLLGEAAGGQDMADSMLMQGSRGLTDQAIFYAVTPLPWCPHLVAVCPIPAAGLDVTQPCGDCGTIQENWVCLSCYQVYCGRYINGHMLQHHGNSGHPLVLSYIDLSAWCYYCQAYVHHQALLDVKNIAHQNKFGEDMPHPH

MDA-MB-231 [4] = assay: Antiproliferative activity against human MDA-MB-231 cells assessed as inhibition of clone formation at 2.5 to 10 uM; format: functional, cell-based; conditions: dose 2.5-10 µM
Histone deacetylase 2 [5] = molecular target: T1, Histone deacetylase 2; assay: Inhibition of HDAC2 (unknown origin)
[6] = molecular target: T2, Protein deacetylase HDAC6 (Homo sapiens); assay: Inhibition of HDAC6 in human MDA-MB-231 cells assessed as accumulation of acetylated tubulin at 5 to 20 uM by Western blot analysis; format: cell-based; conditions: dose 5-20 µM
MDA-MB-231 [7] = assay: Induction of autophagy in human MDA-MB-231 cells transfected with GFP-LC3 assessed as accumulation of LC3 puncta at 5 to 20 uM after 48 hrs by Western blot analysis; format: functional, cell-based; conditions: dose 5-20 µM
MDA-MB-231 [8] = assay: Induction of autophagy in human MDA-MB-231 cells transfected with GFP-LC3 assessed as decrease in SQSTM1/p62 expression at 5 to 20 uM after 48 hrs by Western blot analysis; format: functional, cell-based; conditions: dose 5-20 µM
MDA-MB-231 [9] = assay: Induction of autophagy in human MDA-MB-231 cells transfected with GFP-LC3 assessed as increase in Beclin 1 level at 5 to 20 uM after 48 hrs by Western blot analysis; format: functional, cell-based; conditions: dose 5-20 µM
MDA-MB-231 [10] = assay: Induction of autophagy in human MDA-MB-231 cells transfected with GFP-LC3 assessed as increase in LC3II level at 5 to 20 uM after 48 hrs by Western blot analysis; format: functional, cell-based; conditions: dose 5-20 µM
MDA-MB-231 [11] = assay: Induction of apoptosis in human MDA-MB-231 cells assessed as live cells at 5 uM by annexin V/propidium iodide staining-based flow cytometry analysis (reference value: 96.7 %); format: functional
MDA-MB-231 [12] = assay: Induction of apoptosis in human MDA-MB-231 cells assessed as late apoptotic cells at 5 uM by annexin V/propidium iodide staining-based flow cytometry analysis (reference value: 2.34 %); format: functional
MDA-MB-231 [13] = assay: Induction of apoptosis in human MDA-MB-231 cells assessed as live cells at 10 uM by annexin V/propidium iodide staining-based flow cytometry analysis (reference value: 96.7 %); format: functional
MDA-MB-231 [14] = assay: Induction of apoptosis in human MDA-MB-231 cells assessed as early apoptotic cells at 10 uM by annexin V/propidium iodide staining-based flow cytometry analysis (reference value: 0.69 %); format: functional
MDA-MB-231 [15] = assay: Induction of apoptosis in human MDA-MB-231 cells assessed as late apoptotic cells at 10 uM by annexin V/propidium iodide staining-based flow cytometry analysis (reference value: 2.34 %); format: functional
MDA-MB-231 [16] = assay: Induction of apoptosis in human MDA-MB-231 cells assessed as necrotic cells at 10 uM by annexin V/propidium iodide staining-based flow cytometry analysis (reference value: 0.099 %); format: functional
MDA-MB-231 [17] = assay: Induction of apoptosis in human MDA-MB-231 cells assessed as late apoptotic cells at 20 uM by annexin V/propidium iodide staining-based flow cytometry analysis (reference value: 2.34 %); format: functional
MDA-MB-231 [18] = assay: Induction of apoptosis in human MDA-MB-231 cells assessed as necrotic cells at 20 uM by annexin V/propidium iodide staining-based flow cytometry analysis (reference value: 0.099 %); format: functional
MDA-MB-231 [19] = assay: Induction of apoptosis in human MDA-MB-231 cells assessed as upregulation of BAX at 5 to 20 uM by Western blot analysis; format: functional, cell-based; conditions: dose 5-20 µM
MDA-MB-231 [20] = assay: Induction of apoptosis in human MDA-MB-231 cells assessed as downregulation of Bcl-2 at 5 to 20 uM by Western blot analysis; format: functional, cell-based; conditions: dose 5-20 µM
MDA-MB-231 [21] = assay: Induction of apoptosis in human MDA-MB-231 cells assessed as increase in PARP cleavage at 5 to 20 uM by Western blot analysis; format: functional, cell-based; conditions: dose 5-20 µM
MDA-MB-231 [22] = assay: Induction of apoptosis in human MDA-MB-231 cells assessed as increase in caspase 8 cleavage at 5 to 20 uM by Western blot analysis; format: functional, cell-based; conditions: dose 5-20 µM

T1 sequence (Q92769 whole entry): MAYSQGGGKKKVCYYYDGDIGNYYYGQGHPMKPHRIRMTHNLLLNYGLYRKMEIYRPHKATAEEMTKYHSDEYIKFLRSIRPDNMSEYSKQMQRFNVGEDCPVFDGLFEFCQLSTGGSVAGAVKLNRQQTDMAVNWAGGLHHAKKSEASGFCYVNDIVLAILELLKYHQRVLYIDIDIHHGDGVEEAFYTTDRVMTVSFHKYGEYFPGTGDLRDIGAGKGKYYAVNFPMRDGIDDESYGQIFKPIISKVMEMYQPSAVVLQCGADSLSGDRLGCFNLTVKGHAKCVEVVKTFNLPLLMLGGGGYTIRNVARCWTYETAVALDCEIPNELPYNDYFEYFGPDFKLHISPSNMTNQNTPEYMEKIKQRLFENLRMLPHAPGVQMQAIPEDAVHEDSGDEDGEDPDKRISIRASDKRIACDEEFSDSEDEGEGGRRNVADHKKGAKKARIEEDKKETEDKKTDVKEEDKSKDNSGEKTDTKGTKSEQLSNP

## CN1CCN(c2nc(-c3ccc(C(=O)NO)cc3)nc3cc(Cl)ccc23)CC1
[1]
  IC50: 134 nM
MDA-MB-468
  IC50: 14300 nM
Histone deacetylase 2 [2]
  Activity: inactive
[3]
  Activity: Active
MDA-MB-231 [4]
  inhibition: Active
Histone deacetylase 2 [5]
  IC50: 374 nM
[6]
  inhibition: Active
MDA-MB-231 [7]
  Activity: Active
MDA-MB-231 [8]
  Activity: Active
MDA-MB-231 [9]
  Activity: Active
MDA-MB-231 [10]
  Activity: Active
MDA-MB-231 [11]
  Activity: 88.1%
MDA-MB-231 [12]
  Activity: 6.39%
MDA-MB-231 [13]
  Activity: 69.1%
MDA-MB-231 [14]
  Activity: 7.95%
MDA-MB-231 [15]
  Activity: 22.4%
MDA-MB-231 [16]
  Activity: 0.49%
MDA-MB-231 [17]
  Activity: 34.3%
MDA-MB-231 [18]
  Activity: 0.46%
MDA-MB-231 [19]
  Activity: Active
MDA-MB-231 [20]
  Activity: Active
MDA-MB-231 [21]
  Activity: Active
MDA-MB-231 [22]
  Activity: Active

— ChEMBL document CHEMBL4811304, “Design, synthesis and biological evaluation of dual mTOR/HDAC6 inhibitors in MDA-MB-231 cells” (Bioorg Med Chem Lett, 2021)
